This note sets out measurements from ChEMBL document CHEMBL5113402, “Inhibition of cytochrome P450 monooxygenase-catalyzed oxylipin formation by flavonoids: Evaluation of structure-activity relationship towards CYP4F2-selective inhibitors” (Eur J Med Chem, 2022).

For data set [1], the target named is T1, CYP450 (20-HETE formation) (Homo sapiens, UniProt P04798+P05177+P05181+P08684+P10632+P10635+P11509+P11712+P13584+P20813+P20815+P20853+P24462+P24903+P33260+P33261+P51589+P78329+P98187+Q02928+Q08477+Q16678+Q16696+Q5TCH4+Q6VVX0+Q7Z449+Q8TAV3+Q96SQ9+Q9HB55). As to the kind of experiment: Inhibition of CYP450 in human liver microsomes assessed as inhibition of 20-HETE formation in presence of arachidonic acid and NADPH by multi-enzyme assay based LC-MS/MS analysis. The data set is classed as ADME, Microsome. The following applies: probe arachidonic acid. On the technique in general: Microsomes from liver hold many membrane-bound enzymes, among them those of drug oxidation.

Data set [2] concerns the target T2, Cytochrome P450 4F2 (Homo sapiens, UniProt P78329).
T2 sequence (P78329 whole entry): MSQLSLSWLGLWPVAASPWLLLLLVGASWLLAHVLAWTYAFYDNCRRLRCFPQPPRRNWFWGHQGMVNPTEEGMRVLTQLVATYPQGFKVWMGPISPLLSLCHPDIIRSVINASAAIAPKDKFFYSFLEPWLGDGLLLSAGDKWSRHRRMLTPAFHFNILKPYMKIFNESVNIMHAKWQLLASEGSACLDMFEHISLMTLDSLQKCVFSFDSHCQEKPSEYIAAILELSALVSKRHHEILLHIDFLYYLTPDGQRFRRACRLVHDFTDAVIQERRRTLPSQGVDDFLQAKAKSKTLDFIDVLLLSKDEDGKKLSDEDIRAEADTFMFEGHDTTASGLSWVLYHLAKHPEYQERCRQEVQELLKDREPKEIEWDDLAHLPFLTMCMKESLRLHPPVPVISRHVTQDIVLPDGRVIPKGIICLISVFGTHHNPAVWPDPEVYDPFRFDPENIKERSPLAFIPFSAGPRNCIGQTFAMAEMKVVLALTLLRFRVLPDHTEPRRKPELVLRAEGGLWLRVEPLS
As to the kind of experiment: Inhibition of recombinant human CYP4F2 expressed in baculovirus-infected insect cells in presence of arachidonic acid and NADPH incubated for 15 mins by jump-dilution assay. The format is ADME.

Another data set is filed under the species Homo sapiens. As to the kind of experiment: Selectivity index, log ratio of Inhibition of CYP450 in human liver microsomes assessed as inhibition of EpETrE formation in presence of arachidonic acid to Inhibition of CYP450 in human liver microsomes assessed as inhibition of 20-HETE formation in presence of arachidonic acid.
Data set [3] addresses CYP450 (EpETrE formation) (Homo sapiens, UniProt P04798+P05177+P05181+P08684+P10632+P10635+P11509+P11712+P13584+P20813+P20815+P20853+P24462+P24903+P33260+P33261+P51589+P78329+P98187+Q02928+Q08477+Q16678+Q16696+Q5TCH4+Q6VVX0+Q7Z449+Q8TAV3+Q96SQ9+Q9HB55). In words: Inhibition of CYP450 in human liver microsomes assessed as inhibition of EpETrE formation at 10 uM in presence of arachidonic acid and NADPH by multi-enzyme assay based LC-MS/MS analysis relative to control. The format is ADME, Microsome. The following applies: probe arachidonic acid.

The target of data set [4] is T2, Cytochrome P450 4F2. In words: Inhibition of recombinant human CYP4F2 expressed in baculovirus-infected insect cells in presence of arachidonic acid and NADPH incubated for 15 mins by jump-dilution assay relative to control. The format is ADME.
The target in a further data set is T3, CYP2J2 (Homo sapiens, UniProt P51589).
T3 sequence (P51589 whole entry): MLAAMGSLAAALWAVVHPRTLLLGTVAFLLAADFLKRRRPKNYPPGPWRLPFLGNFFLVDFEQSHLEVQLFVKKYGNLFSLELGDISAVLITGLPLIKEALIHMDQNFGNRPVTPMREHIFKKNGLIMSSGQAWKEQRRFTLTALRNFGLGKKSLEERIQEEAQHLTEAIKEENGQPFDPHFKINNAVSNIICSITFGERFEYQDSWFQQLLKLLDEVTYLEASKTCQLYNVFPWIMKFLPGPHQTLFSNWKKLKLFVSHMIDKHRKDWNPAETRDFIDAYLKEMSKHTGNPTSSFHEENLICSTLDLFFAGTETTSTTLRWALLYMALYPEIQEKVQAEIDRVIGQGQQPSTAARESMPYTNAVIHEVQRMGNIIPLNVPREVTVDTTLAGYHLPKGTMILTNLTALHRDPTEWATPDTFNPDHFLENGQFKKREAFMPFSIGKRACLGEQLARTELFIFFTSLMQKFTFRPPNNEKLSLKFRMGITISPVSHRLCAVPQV
In words: Inhibition of recombinant human CYP2J2 expressed in baculovirus-infected insect cells at 50 uM incubated for 15 mins in presence of arachidonic acid and NADPH by jump-dilution assay relative to control. The format is ADME. The following applies: probe arachidonic acid.

The nature of data set [5]: Inhibition of CYP450 in Sprague-Dawley rat liver microsomes assessed as inhibition of 20-HETE formation in presence of arachidonic acid and NADPH by multi-enzyme assay based LC-MS/MS analysis. The format is ADME, Microsome.
The next data set has as its target T4, Cytochrome P450 4A11 (Homo sapiens, UniProt Q02928).
T4 sequence (Q02928 whole entry): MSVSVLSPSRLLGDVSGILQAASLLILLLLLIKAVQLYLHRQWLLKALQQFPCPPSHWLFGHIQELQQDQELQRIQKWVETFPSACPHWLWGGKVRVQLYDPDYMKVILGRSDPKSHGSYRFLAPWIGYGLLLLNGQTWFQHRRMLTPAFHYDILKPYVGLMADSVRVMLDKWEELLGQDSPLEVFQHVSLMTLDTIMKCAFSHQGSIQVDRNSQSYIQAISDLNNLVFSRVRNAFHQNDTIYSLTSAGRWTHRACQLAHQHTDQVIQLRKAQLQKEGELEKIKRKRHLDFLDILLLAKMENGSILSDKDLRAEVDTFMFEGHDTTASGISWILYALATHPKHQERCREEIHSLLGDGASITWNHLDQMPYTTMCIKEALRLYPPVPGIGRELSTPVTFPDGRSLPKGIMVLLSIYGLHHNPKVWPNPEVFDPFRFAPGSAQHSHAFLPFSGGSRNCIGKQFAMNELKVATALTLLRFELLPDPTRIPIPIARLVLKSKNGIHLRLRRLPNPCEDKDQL
In words: Inhibition of recombinant human CYP4A11 expressed in baculovirus-infected insect cells in presence of arachidonic acid and NADPH incubated for 15 mins by jump-dilution assay relative to control. The format is ADME.

Data set [6] is described as follows: Plasma protein binding in human assessed as bound fraction by rapid equilibrium dialysis assay. The data set is classed as ADME, cell-free. The following applies: read-out: PPB.
Data set [7] has as its target T1, CYP450 (20-HETE formation). As to the kind of experiment: Inhibition of CYP450 in human liver microsomes assessed as inhibition of 20-HETE formation in presence of arachidonic acid and NADPH by multi-enzyme assay based LC-MS/MS analysis relative to control. The format is ADME, Microsome. The following applies: probe arachidonic acid.
The nature of data set [8]: Inhibition of CYP450 in Sprague-Dawley rat liver microsomes assessed as inhibition of 20-HETE formation in presence of arachidonic acid and NADPH by multi-enzyme assay based LC-MS/MS analysis relative to control. The format is ADME, Microsome.
Data set [9] is described as follows: Inhibition of CYP450 in B6C3F1 mouse liver microsomes assessed as inhibition of 20-HETE formation in presence of arachidonic acid and NADPH by multi-enzyme assay based LC-MS/MS analysis. The format is ADME, Microsome.

Molecules are shown by their SMILES.

As a reminder, the IC50 is the concentration that inhibits the measured activity by half. By inhibition is commonly meant how much of the control response was suppressed.

For the molecule `O=c1cc(-c2ccc(C(F)(F)F)cc2)oc2ccccc12`, the IC50 came to 4.9 µM in [1]; 0.87 µM on Cytochrome P450 4F2 [2]; 0.76 µM on Cytochrome P450 4F2 [4]; 4.3 µM in data set [5]; 50 µM on Cytochrome P450 4A11; 2.8 µM in [7]. In addition, the figures for the IC50 in data set [8] and in data set [9] were 1.4 µM and 7.6 µM, respectively. Moreover, the log(ratio) in the data set filed under Homo sapiens was found to be 0.58. The inhibition at 10 µM in data set [3] was < 15%. Moreover, on CYP2J2, the inhibition at 0.25 h, 50 µM is < 25%. Also, the fraction unbound in data set [6] was < 0.05.
